These results are taken from US20250320206A1, “STAT6 DEGRADERS” (Gilead Sciences, Inc., priority 2024, published 2025).

Each structure is given as a SMILES string.

Assay [1] has as its target T1, STAT6 (Homo sapiens, UniProt P42226).
T1 construct: These cells express endogenous STAT6; host or cells: HeLa LgBiT clone 4.14
T1 sequence (P42226 1-847): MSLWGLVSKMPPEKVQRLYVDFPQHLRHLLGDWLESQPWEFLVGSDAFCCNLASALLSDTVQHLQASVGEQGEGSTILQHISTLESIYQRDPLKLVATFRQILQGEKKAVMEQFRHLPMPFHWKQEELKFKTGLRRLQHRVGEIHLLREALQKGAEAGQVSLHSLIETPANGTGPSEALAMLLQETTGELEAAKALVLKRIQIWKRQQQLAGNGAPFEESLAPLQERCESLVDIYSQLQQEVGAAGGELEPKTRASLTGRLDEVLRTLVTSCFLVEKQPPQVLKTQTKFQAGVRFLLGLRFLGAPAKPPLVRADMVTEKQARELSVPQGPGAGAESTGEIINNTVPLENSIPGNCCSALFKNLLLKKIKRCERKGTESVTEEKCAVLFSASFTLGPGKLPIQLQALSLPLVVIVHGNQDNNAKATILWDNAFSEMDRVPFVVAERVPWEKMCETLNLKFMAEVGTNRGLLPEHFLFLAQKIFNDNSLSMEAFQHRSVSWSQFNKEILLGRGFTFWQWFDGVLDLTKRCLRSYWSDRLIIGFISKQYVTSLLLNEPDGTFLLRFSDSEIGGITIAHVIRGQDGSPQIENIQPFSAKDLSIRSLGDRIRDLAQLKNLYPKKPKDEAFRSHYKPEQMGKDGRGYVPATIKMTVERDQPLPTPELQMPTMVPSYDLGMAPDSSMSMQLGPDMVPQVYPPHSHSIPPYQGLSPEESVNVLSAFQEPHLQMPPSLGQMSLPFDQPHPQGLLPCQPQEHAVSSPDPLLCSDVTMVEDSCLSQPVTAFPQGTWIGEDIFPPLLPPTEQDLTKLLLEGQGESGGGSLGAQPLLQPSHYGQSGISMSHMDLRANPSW
Put plainly: Stat6 Degrader Assay (HiBiT based, HeLa LgBiT clone 4.14). The assay is classed as cell-based. Conditions: HeLa LgBiT clone 4.14 HiBiT-STAT6, 4-24 h incubation; values given for compounds with >80% Emax; geometric mean; read-out: STAT6 degradation DC50. A digest of the protocol: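 Luminescence from HiBiT-STAT6 complementing stably expressed LgBiT in HeLa clone 4.14 reports remaining STAT6 protein. Cells (5000/well) exposed to compound for 4-24 h at 37° C; read 0.5 h after Nano-Glo addition. 100% degradation window set with 50 μM terfenadine; percent degradation plotted against concentration.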
A general note: HiBiT is a short tag that completes a luciferase, so light tracks the accessible tagged protein.

Assay [2] concerns Eotaxin-3 release in human whole blood stimulated with IL-4. In words: Human Whole Blood Eotaxin-3 Assay (IL-4 stimulated eotaxin-3 release). The assay is classed as cell-based. The settings on record: IL-4 stimulation, 48 h, values given for compounds with >80% Emax, geometric mean. A digest of the protocol: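 Eotaxin-3 (CCL26) release measured by MSD kit in plasma supernatant after 48 h IL-4 stimulation ([…]) of human whole blood. Compounds added in triplicate 4-fold dilutions 2 h before stimulation; 0.5% DMSO final, 37° C, 5% CO2.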

What is called DC50 is the concentration at which degradation of the target reaches its halfway point. In general, EC50 refers to the concentration that produces a half-maximal response. A higher EC50 goes with weaker potency.

In the case of `CNc1ccn(-c2ccnc3c2cc([C@H](C)N2CC=C(c4c(C)cc(C(=O)N5CCC(CN6CCN(Cc7cc8c(cc7F)N([C@@H]7CCC(=O)NC7=O)C(=O)C87CC7)C[C@@H]6C)CC5)cc4F)CC2)n3C)c(=O)c1` (single isomer, unassigned) [Example 3u195], the DC50 in assay [1] was determined as 1.6 nM. Besides, in assay [2], the EC50 came to 2.2 nM.

Turning to `CNc1ccn(-c2ccnc3c2cc([C@H](C)N2CC=C(c4c(C)cc(C(=O)N5CCn6nc(CN7CCC(c8ccc9c(c8)n(C8CC8)c(=O)n9C8CCC(=O)NC8=O)CC7)cc6C5)cc4F)CC2)n3C)c(=O)c1` (stereo partly drawn) [Example 3u254, 3-(3-cyclopropyl-5-(1-((5-(3-fluoro-5-methyl-4-(1-((S)-1-(1-methyl-4-(4-(methylamino)-2-oxopyridin-1 (2H)-yl)-1H-pyrrolo[2,3-b]pyridin-2-yl)ethyl)-1,2,3,6-tetrahydropyridin-4-yl)benzoyl)-4,5,6,7-tetrahydropyrazolo[1,5-a]pyrazin-2-yl)methyl)piperidin-4-yl)-2-oxo-2,3-dihydro-1H-benzo[d]imidazol-1-yl)piperidine-2,6-dione], in assay [1], the 50% degradation concentration (DC50) came out at 0.4 nM. Besides, the EC50 in assay [2] was found to be 0.2 nM.

As to `CNc1ccn(-c2ccnc3c2cc(CN2CC=C(c4c(F)cc(C(=O)N5CCC(CN6CCN(Cc7ccc8c(c7)n(C7CC7)c(=O)n8C7CCC(=O)NC7=O)C[C@@H]6C)CC5)cc4F)CC2)n3C)c(=O)c1` (stereo partly drawn) [Example 3u71, 3-(3-cyclopropyl-5-(((S)-4-((1-(3,5-difluoro-4-(1-((1-methyl-4-(4-(methylamino)-2-oxopyridin-1 (2H)-yl)-1H-pyrrolo[2,3-b]pyridin-2-yl)methyl)-1,2,3,6-tetrahydropyridin-4-yl)benzoyl)piperidin-4-yl)methyl)-3-methylpiperazin-1-yl)methyl)-2-oxo-2,3-dihydro-1H-benzo[d]imidazol-1-yl)piperidine-2,6-dione], the DC50 in assay [1] was determined as 5.3 nM. For the same molecule, the EC50 in assay [2] was determined as 1.8 nM.

`CNc1cc(=O)n(-c2ccnc3c2cc([C@H](C)N2CC=C(c4c(C)cc(C(=O)N5CCC(CN6CCN(Cc7ccc8c(c7)C7(CC7)C(=O)N8C7CCC(=O)NC7=O)C[C@@H]6C)CC5)cc4F)CC2)n3C)cc1F` (stereo partly drawn) [Example 3u164, 3-(5′-(((S)-4-((1-(3-fluoro-4-(1-((S)-1-(4-(5-fluoro-4-(methylamino)-2-oxopyridin-1 (2H)-yl)-1-methyl-1H-pyrrolo[2,3-b]pyridin-2-yl)ethyl)-1,2,3,6-tetrahydropyridin-4-yl)-5-methyl-benzoyl)piperidin-4-yl)methyl)-3-methylpiperazin-1-yl)methyl)-2′-oxospiro[cyclopropane-1,3′-indolin]-1′-yl)piperidine-2,6-dione]: in assay [1], the DC50 stood at 1 nM. In assay [2], this molecule showed an EC50 of 2 nM.

With `CNc1ccn(-c2ccnc3c2cc([C@H](C)N2CC=C(c4c(C)cc(C(=O)N5CCC(CN6CCN(Cc7ccc8c(c7)n(C)c(=O)n8[C@H]7CCC(=O)NC7=O)C[C@@H]6C)CC5)cc4F)CC2)n3C)c(=O)c1` (single isomer, unassigned) [Example 3u33], in assay [1], the half-maximal degradation concentration (DC50) stood at 0.2 nM. The molecule further registered an EC50 in assay [2] of 0.3 nM.

Take `CNc1cc(=O)n(-c2ccnc3c2cc([C@H](C)N2CCC(c4ccc(C(=O)N5CCC(CN6CCN(Cc7ccc8c(c7)C7(CC7)C(=O)N8[C@@H]7CCC(=O)NC7=O)C[C@@H]6C)CC5)cc4)CC2)n3C)cc1F` (single isomer, unassigned) [Example 3u38]: the DC50 in assay [1] was 1.3 nM. The same molecule returned an EC50 in assay [2] of 1.5 nM.

For the molecule `CNc1ccn(-c2ccnc3c2cc(CN2CCC(c4c(F)cc(C(=O)N5CCC(CN6CCN(Cc7cc8c(cc7F)N([C@H]7CCC(=O)NC7=O)C(=O)C87CC7)CC6)CC5)cc4F)CC2)n3C)c(=O)c1` (single isomer, unassigned) [Example 3u43], in assay [1], the DC50 was 8.5 nM. The EC50 in assay [2] was 9.1 nM.

As to `CNc1cc(=O)n(-c2ccnc3c2cc(CN2CCC(c4c(F)cc(C(=O)N5CCC(CN6CCN(Cc7ccc8c(c7)n(C)c(=O)n8C7CCC(=O)NC7=O)CC6)CC5)cc4F)CC2)n3C)cc1F` (stereo not shown) [Example 3u26, 3-(5-((4-((1-(3,5-difluoro-4-(1-((4-(5-fluoro-4-(methylamino)-2-oxopyridin-1 (2H)-yl)-1-methyl-1H-pyrrolo[2,3-b]pyridin-2-yl)methyl)piperidin-4-yl)benzoyl)piperidin-4-yl)methyl)piperazin-1-yl)methyl)-3-methyl-2-oxo-2,3-dihydro-1H-benzo[d]imidazol-1-yl)piperidine-2,6-dione], the DC50 in assay [1] was found to be 2.9 nM. The EC50 in assay [2] is 3.4 nM.

Regarding `CNc1cc(=O)n(-c2ccnc3c2cc(CN2CC=C(c4c(F)cc(C(=O)N5CCC(CN6CCN(Cc7ccc8c(c7)n(C7CC7)c(=O)n8C7CCC(=O)NC7=O)C[C@@H]6C)CC5)cc4F)CC2)n3C)cc1F` (stereo partly drawn) [Example 3u213, 3-(3-cyclopropyl-5-(((S)-4-((1-(3,5-difluoro-4-(1-((4-(5-fluoro-4-(methylamino)-2-oxopyridin-1 (2H)-yl)-1-methyl-1H-pyrrolo[2,3-b]pyridin-2-yl)methyl)-1,2,3,6-tetrahydropyridin-4-yl)benzoyl)piperidin-4-yl)methyl)-3-methylpiperazin-1-yl)methyl)-2-oxo-2,3-dihydro-1H-benzo[d]imidazol-1-yl)piperidine-2,6-dione], the DC50 in assay [1] came to 8.6 nM. In addition, in assay [2], the EC50 is 13.2 nM.

For the molecule `CNc1ccn(-c2ccnc3c2cc(CN2CCC(c4c(C)cc(C(=O)N5CCC(CN6CCN(Cc7ccc8c(c7)n(C)c(=O)n8[C@H]7CCC(=O)NC7=O)CC6)CC5)cc4F)CC2)n3C)c(=O)c1` (single isomer, unassigned) [Example 3u160], in assay [1], the DC50 turned out to be 10.9 nM. The molecule further showed an EC50 in assay [2] of 27.5 nM.

For `CNc1nc(=O)n(-c2ccnc3c2cc([C@H](C)N2CC=C(c4c(C)cc(C(=O)N5CCC(CN6CCN(Cc7ccc8c(c7)C7(CC7)C(=O)N8C7CCC(=O)NC7=O)C[C@@H]6C)CC5)cc4F)CC2)n3C)cc1F` (stereo partly drawn) [Example 3u102, 3-(5′-(((S)-4-((1-(3-fluoro-4-(1-((S)-1-(4-(5-fluoro-4-(methylamino)-2-oxopyrimidin-1 (2H)-yl)-1-methyl-1H-pyrrolo[2,3-b]pyridin-2-yl)ethyl)-1,2,3,6-tetrahydropyridin-4-yl)-5-methylbenzoyl)piperidin-4-yl)methyl)-3-methylpiperazin-1-yl)methyl)-2′-oxospiro[cyclopropane-1,3′-indolin]-1′-yl)piperidine-2,6-dione], the DC50 in assay [1] turned out to be 3.4 nM. This molecule yielded an EC50 in assay [2] of 1.9 nM.

As for `CNc1cc(=O)n(-c2ccnc3c2cc([C@H](C)N2CC=C(c4c(C)cc(C(=O)N5CCC(CN6CCN(Cc7ccc8c(c7)n(C)c(=O)n8[C@H]7CCC(=O)NC7=O)C[C@@H]6C)CC5)cc4F)CC2)n3C)cc1F` (single isomer, unassigned) [Example 3u91], the DC50 in assay [1] is 0.6 nM. The molecule also came in with an EC50 in assay [2] of 1.4 nM.

On to `CNc1ccn(-c2ccnc3c2cc([C@H](C)N2CC=C(c4c(C)cc(C(=O)N(C)c5ccc(C6CCN(Cc7ccc8c(c7)n(C)c(=O)n8C7CCC(=O)NC7=O)CC6)cc5)cc4F)CC2)n3C)c(=O)c1` (stereo partly drawn) [Example 3u225, N-(4-(1-((1-(2,6-dioxopiperidin-3-yl)-3-methyl-2-oxo-2,3-dihydro-1H-benzo[d]-imidazol-5-yl)methyl)piperidin-4-yl)phenyl)-3-fluoro-N,5-dimethyl-4-(1-((S)-1-(1-methyl-4-(4-(methyl-amino)-2-oxopyridin-1 (2H)-yl)-1H-pyrrolo[2,3-b]pyridin-2-yl)ethyl)-1,2,3,6-tetrahydropyridin-4-yl)-benzamide], for which the DC50 in assay [1] came out at 0.1 nM. The molecule further returned an EC50 in assay [2] of 0.3 nM.

In the case of `CNc1cc(=O)n(-c2ccnc3c2cc([C@H](C)N2CC=C(c4c(C)cc(C(=O)N5CCC(CN6CCN(Cc7ccc8c(c7)C(C)(C)C(=O)N8[C@H]7CCC(=O)NC7=O)C[C@@H]6C)CC5)cc4F)CC2)n3C)cc1F` (single isomer, unassigned) [Example 3u173], the DC50 in assay [1] came out at 3.1 nM. In assay [2], this molecule returned a concentration for a half-maximal effect (EC50) of 7.8 nM.
